Article PMC12396409, “Screening and hit evaluation of a microbial metabolite library against the pathogenic Plasmodium falciparum and Toxoplasma gondii parasites” (International Journal for Parasitology: Drugs and Drug …, 2025)
Like-named read-outs stand apart in the source and are kept apart here.

Experiments:
[1] = system: T. gondii RH strain (RH-Tub-eYFP) tachyzoites; experiment: microbe, parasite or virus in culture; assay type: cell-based, Toxoplasma gondii; conditions: 72 h; for percent parasite growth at 2 µg/mL: Toxoplasma gondii
[2] = system: P. falciparum 3D7 parasites; experiment: P. falciparum growth inhibition assay, 1-cycle (72 h treatment), SYBR DNA staining (library screen at 2 μg/mL and dose-response); assay type: cell-based, Plasmodium falciparum; conditions: for activity at 2 µg/mL: Plasmodium falciparum, 3D7
[3] = system: P. falciparum 3D7 parasites; experiment: P. falciparum growth inhibition assay, 2-cycle (120 h treatment), delayed-death screen and dose-response; assay type: cell-based, Plasmodium falciparum; conditions: for activity at 2 µg/mL: Plasmodium falciparum, 3D7
[4] = library screen at 2 μg/mL, % growth, replicate 1
[5] = library screen at 2 μg/mL, % growth, replicate 2
[6] = library screen at 2 μg/mL, 72 h, % growth, replicate 1
[7] = library screen at 2 μg/mL, 72 h, % growth, replicate 2
[8] = library screen at 2 μg/mL, 120 h, % growth, replicate 1
[9] = library screen at 2 μg/mL, 120 h, % growth, replicate 2
[10] = T. gondii, screen at 2 μg/mL, replicate 1
[11] = T. gondii, screen at 2 μg/mL, replicate 2
[12] = P. falciparum, 72 h, screen at 2 μg/mL, replicate 1
[13] = P. falciparum, 72 h, screen at 2 μg/mL, replicate 2
[14] = P. falciparum, 120 h, screen at 2 μg/mL, replicate 1
[15] = P. falciparum, 120 h, screen at 2 μg/mL, replicate 2
[16] = T. gondii, parasite screen at 2 μg/mL, % growth, replicate 1
[17] = T. gondii, parasite screen at 2 μg/mL, % growth, replicate 2
[18] = P. falciparum 3D7, 72 h, parasite screen at 2 μg/mL, % growth, replicate 1
[19] = P. falciparum 3D7, 72 h, parasite screen at 2 μg/mL, % growth, replicate 2
[20] = P. falciparum 3D7, 120 h, parasite screen at 2 μg/mL, % growth, replicate 1
[21] = P. falciparum 3D7, 120 h, parasite screen at 2 μg/mL, % growth, replicate 2

`CC(C)CCC[C@@H](C)[C@@H]1CC[C@]2(C)C3=C(CC[C@@]12C)[C@@]1(C)CC[C@H](O)C(C)(C)[C@@H]1CC3` [Dihydroeuphol] gave a Tg_72h_%Growth_Rep1 [1, 4] of 139.10%, a Tg_72h_%Growth_Rep2 [1, 5] of 102.23% and a Pf_72h_%Growth_Rep1 [2, 6] of 82.89%. The Pf_72h_%Growth_Rep2 [2, 7] was 91.07%, the Pf_120h_%Growth_Rep1 [3, 8] was 82.20% and the Pf_120h_%Growth_Rep2 [3, 9] was 96.98%.

For `CC1(C)CC[C@]2(C(=O)O)CC[C@]3(C)C(=CC[C@@H]4[C@@]5(C)C[C@@H](O)[C@H](O)[C@@](C)(CO)[C@@H]5CC[C@]43C)[C@@H]2C1` [Arjunolic acid], the percent parasite growth at 2 µg/mL ([1]; library screen at 2 μg/mL, % growth, replicate 1, read-out: Tg_72h_%Growth_Rep1) was 85.6%, the percent parasite growth at 2 µg/mL ([1]; library screen at 2 μg/mL, % growth, replicate 2, read-out: Tg_72h_%Growth_Rep2) was 73.6% and the activity at 2 µg/mL ([2]; library screen at 2 μg/mL, 72 h, % growth, replicate 1, read-out: Pf_72h_%Growth_Rep1) was 75.9%. It also gave an activity at 2 µg/mL ([2]; library screen at 2 μg/mL, 72 h, % growth, replicate 2, read-out: Pf_72h_%Growth_Rep2) of 83%, an activity at 2 µg/mL ([3]; library screen at 2 μg/mL, 120 h, % growth, replicate 1, read-out: Pf_120h_%Growth_Rep1) of 72.4% and an activity at 2 µg/mL ([3]; library screen at 2 μg/mL, 120 h, % growth, replicate 2, read-out: Pf_120h_%Growth_Rep2) of 76.3%.

For `CCCCCCCCCCCCCC(=O)N[C@H]1CCOC1=O` [Tetradecanoyl-L-homoserine lactone], the Tg_72h_%Growth_Rep1 [1, 10] was 91.68%, the Tg_72h_%Growth_Rep2 [1, 11] was 91.92% and the Pf_72h_%Growth_Rep1 [2, 12] was 70.00%. It also gave a Pf_72h_%Growth_Rep2 [2, 13] of 83.15%, a Pf_120h_%Growth_Rep1 [3, 14] of 140.07% and a Pf_120h_%Growth_Rep2 [3, 15] of 68.40%.

`CC=CC(C)=CC(C)C(=O)CC(O)CC1CC(=O)NC(=O)C1` (stereo not drawn) [BIA-M1404] showed a Tg_72h_%Growth_Rep1 [1, 16] of 4.29%, a Tg_72h_%Growth_Rep2 [1, 17] of 7.26% and a Pf_72h_%Growth_Rep1 [2, 18] of 71.61%. It also gave a Pf_72h_%Growth_Rep2 [2, 19] of 88.22%, a Pf_120h_%Growth_Rep1 [3, 20] of 85.21% and a Pf_120h_%Growth_Rep2 [3, 21] of 78.18%.

In the case of `NC(=O)C#CC(N)=O` [Cellocidin], the Tg_72h_%Growth_Rep1 [1, 10] is reported as 79.59%, the Tg_72h_%Growth_Rep2 [1, 11] is reported as 92.91% and the Pf_72h_%Growth_Rep1 [2, 12] is reported as 102.17%. For the same compound, the Pf_72h_%Growth_Rep2 [2, 13] was 89.58%, the Pf_120h_%Growth_Rep1 [3, 14] was 151.65% and the Pf_120h_%Growth_Rep2 [3, 15] was 95.14%.

In the case of `CO[C@@H]1[C@@H](OC(N)=O)[C@@H](O)[C@H](Oc2ccc3c(O)c(NC(=O)c4ccc(O)c(CCC(C)C)c4)c(=O)oc3c2C)OC1(C)C` [Dihydronovobiocin], the Tg_72h_%Growth_Rep1 [1, 4] is reported as 162.91%, the Tg_72h_%Growth_Rep2 [1, 5] is reported as 101.29% and the Pf_72h_%Growth_Rep1 [2, 6] is reported as 88.16%. For the same compound, the Pf_72h_%Growth_Rep2 [2, 7] was 85.96%, the Pf_120h_%Growth_Rep1 [3, 8] was 93.97% and the Pf_120h_%Growth_Rep2 [3, 9] was 91.59%.

`CC1=C[C@H]2O[C@@H]3[C@H](O)[C@@H](O)[C@](C)([C@@]2(CO)[C@H](O)C1=O)[C@]31CO1` [BIA-N1920] showed a Tg_72h_%Growth_Rep1 [1, 16] of 0.21%, a Tg_72h_%Growth_Rep2 [1, 17] of 0.91% and a Pf_72h_%Growth_Rep1 [2, 18] of 4.51%. For the same compound, the Pf_72h_%Growth_Rep2 [2, 19] was -2.70%, the Pf_120h_%Growth_Rep1 [3, 20] was 18.13% and the Pf_120h_%Growth_Rep2 [3, 21] was 5.74%.

`CCO[C@@H]1[C@@H](OC)[C@H](C)O[C@@H](O[C@@H]2C[C@H]3CC[C@@H]4[C@@H](C=C5C(=O)[C@H](C)[C@@H](O)CCC[C@H](CC)OC(=O)C[C@H]54)[C@@H]3C2)[C@@H]1OC` was tested, and the Tg_72h_%Growth_Rep1 ([1]; T. gondii, parasite screen 2 μg/mL, % growth, replicate 1) was 110.35%, the Tg_72h_%Growth_Rep2 ([1]; T. gondii, parasite screen 2 μg/mL, % growth, replicate 2) was 84.17% and the Pf_72h_%Growth_Rep1 ([2]; P. falciparum, 72 h, parasite screen 2 μg/mL, % growth, replicate 1) was 35.55%. It also gave a Pf_72h_%Growth_Rep2 ([2]; P. falciparum, 72 h, parasite screen 2 μg/mL, % growth, replicate 2) of 25.61%, a Pf_120h_%Growth_Rep1 ([3]; P. falciparum, 120 h, parasite screen 2 μg/mL, % growth, replicate 1) of 31.22% and a Pf_120h_%Growth_Rep2 ([3]; P. falciparum, 120 h, parasite screen 2 μg/mL, % growth, replicate 2) of 24.15%.

`COc1ccc2c(c1)C(=O)NC(Cc1ccccc1)C(=O)NCCC(=O)N1CCCC1C(=O)N2` (stereo not drawn) [Aspercolorin] showed a Tg_72h_%Growth_Rep1 [1, 4] of 77.01%, a Tg_72h_%Growth_Rep2 [1, 5] of 95.41% and a Pf_72h_%Growth_Rep1 [2, 6] of 96.39%. It also gave a Pf_72h_%Growth_Rep2 [2, 7] of 82.46%, a Pf_120h_%Growth_Rep1 [3, 8] of 146.59% and a Pf_120h_%Growth_Rep2 [3, 9] of 102.81%.
